IC50, concentration and Kp data for 20 molecules are collected here from US9249163B2, “PDE10a inhibitors for the treatment of type II diabetes” (Janssen Pharmaceutica, NV, priority 2013, dated 2016).

The target of data set [1] is Rat recombinant PDE10a (rPDE10a) (Rattus norvegicus (Rat), UniProt Q9QYJ6). The experiment in a line: In vitro assay PDE10a (rat recombinant PDE10a, SPA). The class given is biochemical. To be noted: 60 nM cAMP, 60 min at rt, read-out: rPDE10a2 IC50. Put shortly: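 Rat PDE10a expressed in Sf9 cells (baculovirus) and Ni-sepharose purified. Incubated with compound for 60 min at rt in 50 mM Tris pH 7.8, 8.3 mM MgCl2, 1.7 mM EGTA with 60 nM cAMP plus 0.008 μCi ^3H-cAMP (final), 1% DMSO. Read-out by PDE SPA bead scintillation counting (cpm), no-enzyme blank.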

Data set [2] has as its target Human recombinant PDE10A2 (Homo sapiens (Human), UniProt Q9Y233). The data set is described as follows: In vitro hPDE10a (human recombinant PDE10A2, scintillation proximity assay). The class given is biochemical. To be noted: human recombinant PDE10A2, 60 nM cAMP, 60 min at room temperature; read-out: hPDE10a2 IC50. In general terms: In a scintillation proximity assay essentially only radioactivity close to the scintillant gives light.

Data set [3] can be described thus: PDE10a-perfused brain permeability study (plasma and brain concentrations). As to conditions: male, Sprague-Dawley, rat; for Kp at 2 h: brain/plasma.
Protocol: Drug administration by oral gavage, subcutaneous injection or intravenous was carried out using male Sprague Dawley rats under IACUC protocol (SH-MET3010). Male Sprague Dawley rats (Charles River) ˜300-350 g were maintained on a 4% standard rodent diet (Test Diet 5001). They are allowed ad libitum access to water and food. Room temperature was maintained at 64° F. and humidity at 30-70%.
Three animals per compound were provided a dose of 2 mg/mL in 20% HpbCD/Tris pH 8 by tail i.v. or 30 mpk p.o. or s.c. in 20% HpbCD/Tris pH 8, with PDE10a antagonists. A first blood sample was collected at 30 min via retro-orbital sinus (anesthetic by 70% CO2/30% O2) into heparinzed plasma separator tubes. The blood was centrifuged and 100 uL plasma was placed into a 96 well plate and saved on dry ice.
After the 120 min, the final blood sample was collected via retro-orbital sinus under anesthesia by IP 0.5 cc injection of a 4/1 mixture of Ketaset: AnaSed [(prepared 10 mL Ketaset (100 mg/mL Ketamine)+2.5 mL AnaSed (20 mg/mL Xylazine)]. The rats were then perfused with 400 mL heparinized saline (10,000 units/L) through the left ventricle of the heart; the brains were then removed (not including the medulla), weighed and homogenized in PBS (4 mL/g tissue). The samples were stored at −80° C. and submitted for chemical analysis of blood and brain concentrations. Endpoints of sample analysis consists of the plasma concentrations at 30 and 120 min, plus brain concentrations at 120 min.

For orientation: IC50 means the concentration that inhibits the measured activity by half. One may read the Kp as the ratio of the level in a tissue or fluid to that in plasma or blood.

Counter-ions that a name gives are not always drawn. Where only a bound is given, the exact number is not on record here.

Sequence of Rat recombinant PDE10a (rPDE10a) (Q9QYJ6 whole entry): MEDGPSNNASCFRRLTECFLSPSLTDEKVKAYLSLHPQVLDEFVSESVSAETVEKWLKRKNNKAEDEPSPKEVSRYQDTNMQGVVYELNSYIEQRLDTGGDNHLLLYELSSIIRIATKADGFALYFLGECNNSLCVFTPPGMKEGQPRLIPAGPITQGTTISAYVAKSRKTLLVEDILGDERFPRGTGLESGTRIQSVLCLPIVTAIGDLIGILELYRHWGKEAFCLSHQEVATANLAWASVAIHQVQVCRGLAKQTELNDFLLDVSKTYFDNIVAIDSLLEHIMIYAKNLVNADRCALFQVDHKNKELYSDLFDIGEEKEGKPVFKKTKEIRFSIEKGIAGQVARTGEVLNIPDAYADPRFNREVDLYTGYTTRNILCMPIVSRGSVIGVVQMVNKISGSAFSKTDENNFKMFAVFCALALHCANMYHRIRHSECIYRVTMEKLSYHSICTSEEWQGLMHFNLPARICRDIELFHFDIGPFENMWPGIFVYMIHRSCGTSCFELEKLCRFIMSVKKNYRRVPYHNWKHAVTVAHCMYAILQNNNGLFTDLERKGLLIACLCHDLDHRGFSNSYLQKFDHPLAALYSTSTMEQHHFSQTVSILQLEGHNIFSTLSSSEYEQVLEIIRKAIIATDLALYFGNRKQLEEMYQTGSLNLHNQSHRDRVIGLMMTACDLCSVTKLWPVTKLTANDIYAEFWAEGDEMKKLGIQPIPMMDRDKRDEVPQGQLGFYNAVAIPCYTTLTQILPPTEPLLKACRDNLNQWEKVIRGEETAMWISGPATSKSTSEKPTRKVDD
Sequence of Human recombinant PDE10A2 (Q9Y233 267-1055): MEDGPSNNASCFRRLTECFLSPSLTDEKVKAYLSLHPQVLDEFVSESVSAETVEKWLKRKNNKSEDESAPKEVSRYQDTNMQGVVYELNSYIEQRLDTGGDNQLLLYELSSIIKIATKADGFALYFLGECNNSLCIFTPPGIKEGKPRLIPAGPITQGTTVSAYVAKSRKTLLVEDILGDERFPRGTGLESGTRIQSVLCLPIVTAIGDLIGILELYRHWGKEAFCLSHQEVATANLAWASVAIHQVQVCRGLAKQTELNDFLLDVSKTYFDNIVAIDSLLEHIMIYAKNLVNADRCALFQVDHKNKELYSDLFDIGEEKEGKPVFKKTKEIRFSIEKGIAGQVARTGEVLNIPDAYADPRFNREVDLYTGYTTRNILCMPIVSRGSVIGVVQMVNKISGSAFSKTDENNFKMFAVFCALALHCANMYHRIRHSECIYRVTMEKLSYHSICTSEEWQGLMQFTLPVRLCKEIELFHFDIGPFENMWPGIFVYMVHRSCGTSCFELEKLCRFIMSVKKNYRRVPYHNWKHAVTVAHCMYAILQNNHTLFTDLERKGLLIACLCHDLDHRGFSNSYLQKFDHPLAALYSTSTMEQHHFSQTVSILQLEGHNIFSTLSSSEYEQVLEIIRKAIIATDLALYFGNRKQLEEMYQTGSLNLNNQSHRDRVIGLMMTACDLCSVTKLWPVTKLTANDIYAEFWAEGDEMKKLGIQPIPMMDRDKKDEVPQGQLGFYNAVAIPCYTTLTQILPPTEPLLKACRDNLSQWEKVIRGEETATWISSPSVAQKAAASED

With `O=C(O)C1CCN(c2ccc(-c3cnc(N4CCOCC4)c4nc(/C=C/c5ccc6ccccc6n5)cn34)cc2)CC1` [Cpd 14, (E)-1-(4-(8-Morpholino-2-(2-(quinolin-2-yl)vinyl)imidazo[1,2-a]pyrazin-5-yl)phenyl)piperidine-4-carboxylic acid trifluoroacetic acid salt], the IC50 came to 11 nM in data set [1] and 6 nM in data set [2]. The concentration at 2 h in data set [3] (brain) was 35.5 ng/g; in data set [3] (plasma), 503 ng/mL. Also, the Kp at 2 h in data set [3] turned out to be 0.07.

Consider `O=C(O)c1ccc(-c2cnc(N3CCOCC3)c3nc(/C=C/c4ccc5ccccc5n4)cn23)cc1` [Cpd 16, (E)-4-(8-morpholino-2-(2-(quinolin-2-yl)vinyl)imidazo[1,2-a]pyrazin-5-yl)benzoic acid trifluoroacetic acid salt], for which the concentration at 2 h in data set [3] (brain) amounted to 0 ng/g; in data set [3] (plasma), 142 ng/mL. This molecule returned a Kp at 2 h in data set [3] of 0.

In the case of `O=c1[nH]nnn1-c1ccc(-c2cnc(N3CCOCC3)c3nc(/C=C/c4ccc5ccccc5n4)cn23)cc1` [Cpd 55, (E)-1-(4-(8-Morpholino-2-(2-(quinolin-2-yl)vinyl)imidazo[1,2-a]pyrazin-5-yl)phenyl)-1H-tetrazol-5(4H)-one], the concentration at 2 h in data set [3] (brain) worked out at 0 ng/g; in data set [3] (plasma) it was 118 ng/mL. Moreover, the Kp at 2 h in data set [3] was 0.

For `CC(=O)NS(=O)(=O)c1ccc(-c2cnc(N3CCOCC3)c3nc(CCc4ccc5ccccc5n4)cn23)cc1` [Cpd 63, N-((4-(8-Morpholino-2-(2-(quinolin-2-yl)ethyl)imidazo[1,2-a]pyrazin-5-yl)phenyl)sulfonyl)acetamide], the IC50 in data set [1] was less than 1 nM. For the same molecule, the concentration at 2 h was 0 ng/g in data set [3] (brain) and 2 ng/mL in data set [3] (plasma). In data set [3], this molecule displayed a Kp at 2 h of 0.

For the molecule `CC(=O)NS(=O)(=O)c1ccc(-c2cnc(N3CCOCC3)c3nc(/C=C/c4ccc5ccccc5n4)cn23)cc1` [Cpd 69, (E)-N-(4-(8-Morpholino-2-(2-(quinolin-2-yl)vinyl)imidazo[1,2-a]pyrazin-5-yl)phenylsulfonyl)acetamide trifluoroacetic acid salt], the IC50 in data set [1] and in data set [2] was 4 nM each time. Besides, the concentration at 2 h came out at 36.1 ng/g in data set [3] (brain) and 73.6 ng/mL in data set [3] (plasma). The molecule also displayed a Kp at 2 h in data set [3] of 1.

`O=c1[nH]c(-c2ccc(-c3cnc(N4CCOCC4)c4nc(CCc5ccc6ccccc6n5)cn34)cn2)no1` [Cpd 74, 3-[5-[8-(Morpholin-4-yl)-2-[2-(quinolin-2-yl)ethyl]imidazo[1,2-a]pyrazin-5-yl]pyridin-2-yl]-4,5-dihydro-1,2,4-oxadiazol-5-one]: the values for the IC50 in data set [1] and in data set [2] were less than 1 nM and 1 nM, respectively. Besides, the concentration at 2 h in data set [3] (brain) is 0 ng/g; in data set [3] (plasma) it was 58 ng/mL. In data set [3], this molecule yielded a Kp at 2 h of 0.

`CS(=O)(=O)NC(=O)c1ccc(-c2cnc(N3CCOCC3)c3nc(COc4ccc5ccccc5n4)cn23)cn1` [Cpd 76, N-Methanesulfonyl-5-[8-(morpholin-4-yl)-2-[(quinolin-2-yloxy)methyl]imidazo[1,2-a]pyrazin-5-yl]pyridine-2-carboxamide]: the IC50 in data set [1] came to 3 nM; in data set [2] it was 2 nM. For the same molecule, the concentration at 2 h is 0 ng/g in data set [3] (brain) and 115 ng/mL in data set [3] (plasma). In data set [3], the Kp at 2 h worked out at 0.

Take `C(=C\c1cn2c(-c3ccc(-c4nnc[nH]4)nc3)cnc(N3CCOCC3)c2n1)/c1ccc2ccccc2n1` [Cpd 91, (E)-4-(5-(6-(2H-1,2,4-Triazol-3-yl)pyridin-3-yl)-2-(2-(quinolin-2-yl)vinyl)imidazo[1,2-a]pyrazin-8-yl)morpholine]: the figures for the IC50 in data set [1] and in data set [2] were 3 nM and 12 nM, respectively. Further, the concentration at 2 h in data set [3] (brain) was found to be 112 ng/g; in data set [3] (plasma), 209 ng/mL. Also, the Kp at 2 h in data set [3] is 0.55.

In the case of `c1ccc2nc(OCc3cn4c(-c5ccc(Sc6cnn[nH]6)nc5)cnc(N5CCOCC5)c4n3)ccc2c1` [Cpd 92, 4-(5-(6-((1H-1,2,3-Triazol-5-yl)thio)pyridin-3-yl)-2-((quinolin-2-yloxy)methyl)imidazo[1,2-a]pyrazin-8-yl)morpholine], the values for the IC50 in data set [1] and in data set [2] were 3 nM and 6 nM, respectively. Also, the concentration at 2 h was found to be 78.3 ng/g in data set [3] (brain) and 135 ng/mL in data set [3] (plasma). In data set [3], this molecule yielded a Kp at 2 h of 0.77.

As for `C(=C\c1cn2c(-c3cnc4nc[nH]c4c3)cnc(N3CCOCC3)c2n1)/c1ccc2ccccc2n1` [Cpd 93, (E)-4-(5-(3H-Imidazo[4,5-b]pyridin-6-yl)-2-(2-(quinolin-2-yl)vinyl)imidazo[1,2-a]pyrazin-8-yl)morpholine], the IC50 in data set [1] came out at 10 nM; in data set [2], 13 nM. Further, the concentration at 2 h in data set [3] (brain) was 0 ng/g; in data set [3] (plasma) it was 98 ng/mL. The Kp at 2 h in data set [3] turned out to be 0.

As for `O=c1[nH]c(-c2ccc(-c3cnc(N4CCOCC4)c4nc(/C=C/c5ccc6ccccc6n5)cn34)cn2)no1` [Cpd 95, (E)-3-(5-(8-Morpholino-2-(2-(quinolin-2-yl)vinyl)imidazo[1,2-a]pyrazin-5-yl)pyridin-2-yl)-1,2,4-oxadiazol-5-ol], the IC50 in data set [1] was less than 1 nM; in data set [2] it was 5 nM. The concentration at 2 h in data set [3] (brain) turned out to be 0 ng/g; in data set [3] (plasma), 113 ng/mL. Also, the Kp at 2 h in data set [3] amounted to 0.

Turning to `c1ccc2nc(OCc3cn4c(-c5ccc(-c6nnn[nH]6)nc5)cnc(N5CCOCC5)c4n3)ccc2c1` [Cpd 97, 4-(5-(6-(1H-Tetrazol-5-yl)pyridin-3-yl)-2-((quinolin-2-yloxy)methyl)imidazo[1,2-a]pyrazin-8-yl)morpholine], the IC50 in data set [1] and in data set [2] was 1 nM throughout. For the same molecule, the concentration at 2 h was found to be 0 ng/g in data set [3] (brain) and 84 ng/mL in data set [3] (plasma). This molecule had a Kp at 2 h in data set [3] of 0.

Take `O=C(O)CNc1ccc(-c2cnc(N3CCOCC3)c3nc(COc4ccc5ccccc5n4)cn23)cn1` [Cpd 107, 2-((5-(8-Morpholino-2-((quinolin-2-yloxy)methyl)imidazo[1,2-a]pyrazin-5-yl)pyridin-2-yl)amino)acetic acid trifluoroacetic acid salt]: the IC50 in data set [1] and in data set [2] was 2 nM each time. Moreover, the concentration at 2 h in data set [3] (brain) came to 0 ng/g; in data set [3] (plasma) it was 22.5 ng/mL. This molecule yielded a Kp at 2 h in data set [3] of 0.

For `NS(=O)(=O)N1CCC(c2cnc(N3CCOCC3)c3nc(COc4ccc5ccccc5n4)cn23)CC1` [Cpd 109, 4-(8-Morpholino-2-((quinolin-2-yloxy)methyl)imidazo[1,2-a]pyrazin-5-yl)piperidine-1-sulfonamide trifluoroacetic acid salt], the IC50 was determined as 87 nM in data set [1] and 110 nM in data set [2]. For the same molecule, the concentration at 2 h in data set [3] (brain) was determined as 8.15 ng/g; in data set [3] (plasma), 226 ng/mL. The Kp at 2 h in data set [3] is 0.03.

Regarding `O=C(O)CN1CCC(c2cnc(N3CCOCC3)c3nc(COc4ccc5ccccc5n4)cn23)CC1` [Cpd 110, 2-(4-(8-Morpholino-2-((quinolin-2-yloxy)methyl)imidazo[1,2-a]pyrazin-5-yl)piperidin-1-yl)acetic acid trifluoroacetic acid salt], the IC50 was determined as 288 nM in data set [1] and 407 nM in data set [2]. For the same molecule, the values for the concentration at 2 h in data set [3] (brain) and in data set [3] (plasma) were 0 ng/g and 4.63 ng/mL, respectively. For the same molecule, the Kp at 2 h in data set [3] was 0.

As for `c1ccc2nc(OCc3cn4c(-c5ccc(N6CCNCC6)nc5)cnc(-c5ccc6nc[nH]c6c5)c4n3)ccc2c1` [Cpd 119, 2-((8-(1H-Benzo[d]imidazol-6-yl)-5-(6-(piperazin-1-yl)pyridin-3-yl)imidazo[1,2-a]pyrazin-2-yl)methoxy)quinoline trifluoroacetic acid salt], the IC50 in data set [1] stood at 26 nM; in data set [2], 54 nM. Besides, the concentration at 2 h in data set [3] (brain) was found to be 108 ng/g; in data set [3] (plasma) it was 53.8 ng/mL. This molecule gave a Kp at 2 h in data set [3] of 2.99.

As for `c1ccc2nc(OCc3cn4c(-c5cnc(N6CCNCC6)nc5)cnc(N5CCOCC5)c4n3)ccc2c1` [Cpd 121, 4-(5-(2-(Piperazin-1-yl)pyrimidin-5-yl)-2-((quinolin-2-yloxy)methyl)imidazo[1,2-a]pyrazin-8-yl)morpholine methane sulfonic acid salt], the IC50 was 83 nM in data set [1] and 59 nM in data set [2]. Besides, the concentration at 2 h in data set [3] (brain) is 81.5 ng/g; in data set [3] (plasma), 55.1 ng/mL. The Kp at 2 h in data set [3] worked out at 1.55.

`Nc1ccc(-c2cnc(N3CCOCC3)c3nc(COc4ccc5ccccc5n4)cn23)cn1` [Cpd 122, 5-(8-Morpholino-2-((quinolin-2-yloxy)methyl)imidazo[1,2-a]pyrazin-5-yl)pyridin-2-amine methane sulfonic acid salt]: the IC50 in data set [1] came out at 8 nM. Moreover, the concentration at 2 h in data set [3] (brain) was determined as 98.2 ng/g; in data set [3] (plasma), 35.6 ng/mL.

As to `O=C(Nc1cn2c(-c3ccc(N4CCNCC4)nc3)cnc(N3CCOCC3)c2n1)c1ccc2ccccc2n1` [Cpd 125, N-(8-Morpholino-5-(6-(piperazin-1-yl)pyridin-3-yl)imidazo[1,2-a]pyrazin-2-yl)quinoline-2-carboxamide hydrochloric acid salt], the IC50 in data set [1] worked out at 339 nM; in data set [2], 309 nM. Further, the concentration at 2 h in data set [3] (brain) came out at 54.9 ng/g; in data set [3] (plasma) it was 45.9 ng/mL. For the same molecule, the Kp at 2 h in data set [3] was found to be 1.2.

Turning to `c1ccc2nc(OCc3cn4c(-c5ccc(N6CCNCC6)nc5)cnc(C5CCOCC5)c4n3)ccc2c1` [compound 83, 2-((5-(6-(piperazin-1-yl)pyridin-3-yl)-8-(tetrahydro-2H-pyran-4-yl)imidazo[1,2-a]pyrazin-2-yl)methoxy)quinoline trifluoroacetic acid salt], the results for the half-inhibitory concentration (IC50) in data set [1] and in data set [2] were 269 nM and 316 nM, respectively.
